Experimental data from ChEMBL document CHEMBL4346722, “Recent progress on the discovery of P2Y14 receptor antagonists” (Eur J Med Chem, 2019).

How the values were obtained:
[1] = Inhibition of chimpanzee P2Y14 receptor; parameters: species or system Pan troglodytes
[2] = Clearance in C57BL/6 mouse at 50 mg/kg, po; assay type: ADME, organism-based; details: in vivo
[3] = biological target: T1, P2Y purinoceptor 14 (Mus musculus, UniProt Q9ESG6); experiment: Inhibition of mouse P2Y14 receptor in presence of 2% HSA
T1 sequence (Q9ESG6 whole entry): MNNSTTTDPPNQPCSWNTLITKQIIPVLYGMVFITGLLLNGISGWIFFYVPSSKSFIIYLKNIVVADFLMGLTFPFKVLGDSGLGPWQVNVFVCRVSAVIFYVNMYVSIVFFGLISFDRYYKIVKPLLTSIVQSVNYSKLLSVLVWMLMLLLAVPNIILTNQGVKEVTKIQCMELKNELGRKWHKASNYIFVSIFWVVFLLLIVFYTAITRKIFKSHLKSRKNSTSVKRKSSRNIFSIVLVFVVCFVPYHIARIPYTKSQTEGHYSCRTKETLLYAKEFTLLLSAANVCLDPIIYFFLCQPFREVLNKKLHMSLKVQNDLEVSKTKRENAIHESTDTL

[4] = Half life in C57BL/6 mouse at 50 mg/kg, po; assay type: ADME, organism-based; details: in vivo
[5] = biological target: T1, P2Y purinoceptor 14; experiment: Inhibition of mouse P2Y14 receptor

IC50 [1] [nM]	Ki [1] [nM]	CL/F [2] [mL/min/kg]	Ki [3] [nM]	half-life [4] [min]	Ki [5] [nM]	SMILES
4	14					Cc1cc(F)cc(C)c1COc1ccc2c(-c3ccsc3)cc(C(=O)O)cc2c1
		1.6	1290	180	4	O=C(O)c1cc(-c2ccc([C@@H](O)C(F)F)cc2)c2ccc(-c3ccc(C(F)(F)F)cc3)cc2c1
	1.9					O=C(O)c1cc(-c2ccc(C3CCNCC3)cc2)c2ccc(-c3ccc(C(F)(F)F)cc3)cc2c1 [PPTN]
